Assay results from patent publication US20230257396A1, “MACROCYCLES AND THEIR USE” (BLOSSOMHILL THERAPEUTICS, INC., priority 2020, published 2023).

Assays:
Assay in all cases: KINOMEscan kinase binding assay (Eurofins/DiscoveRx), % Ctrl
Settings in all cases: 1 μM
kinases [1] = target: T1, kinases (Homo sapiens, UniProt P10721, V559D)
T1 construct: purchased Eurofins/DiscoveRx; host or cells: E. coli BL21-derived host (T7 phage display) for most kinases; HEK-293 for the rest
Method in brief: (§1)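 Read-out is qPCR of kinase eluted from ligand-coated streptavidin beads after 1 h room-temperature competition with test compound. Values are % Ctrl at the tested concentration, lower meaning tighter binding.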

kinases [2] = target: T2, kinases (Homo sapiens, UniProt P00519, F317I)
T2 construct: purchased Eurofins/DiscoveRx; host or cells: E. coli BL21-derived host (T7 phage display) for most kinases; HEK-293 for the rest
T2 sequence (P00519 whole entry F317I): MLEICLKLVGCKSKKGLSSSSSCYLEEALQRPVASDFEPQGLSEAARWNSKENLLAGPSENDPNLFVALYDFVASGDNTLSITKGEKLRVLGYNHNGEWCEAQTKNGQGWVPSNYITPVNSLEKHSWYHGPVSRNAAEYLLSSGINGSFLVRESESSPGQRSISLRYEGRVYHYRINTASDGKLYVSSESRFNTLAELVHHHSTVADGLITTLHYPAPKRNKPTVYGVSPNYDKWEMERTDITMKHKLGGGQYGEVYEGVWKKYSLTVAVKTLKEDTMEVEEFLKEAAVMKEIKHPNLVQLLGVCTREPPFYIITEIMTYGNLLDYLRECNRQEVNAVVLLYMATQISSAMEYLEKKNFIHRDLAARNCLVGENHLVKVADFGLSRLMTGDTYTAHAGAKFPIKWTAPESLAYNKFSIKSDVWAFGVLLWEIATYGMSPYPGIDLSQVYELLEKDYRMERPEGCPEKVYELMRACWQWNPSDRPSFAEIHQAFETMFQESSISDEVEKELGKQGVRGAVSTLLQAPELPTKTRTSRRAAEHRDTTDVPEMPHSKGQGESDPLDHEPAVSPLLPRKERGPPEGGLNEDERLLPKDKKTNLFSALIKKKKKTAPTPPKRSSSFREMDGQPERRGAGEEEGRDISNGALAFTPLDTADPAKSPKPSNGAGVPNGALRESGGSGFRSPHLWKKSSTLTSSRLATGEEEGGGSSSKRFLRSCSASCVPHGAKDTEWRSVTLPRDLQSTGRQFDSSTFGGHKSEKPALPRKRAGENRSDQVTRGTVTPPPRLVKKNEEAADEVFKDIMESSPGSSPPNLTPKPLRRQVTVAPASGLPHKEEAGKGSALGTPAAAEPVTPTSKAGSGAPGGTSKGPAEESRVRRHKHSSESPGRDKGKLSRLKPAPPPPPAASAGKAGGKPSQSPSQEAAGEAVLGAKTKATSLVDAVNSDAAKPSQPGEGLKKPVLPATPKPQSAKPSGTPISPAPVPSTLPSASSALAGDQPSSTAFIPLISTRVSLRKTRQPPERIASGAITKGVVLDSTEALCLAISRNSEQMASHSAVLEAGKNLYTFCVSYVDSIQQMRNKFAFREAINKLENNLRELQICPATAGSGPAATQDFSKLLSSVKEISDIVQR
Method in brief: as §1

kinases [3] = target: T3, kinases (Homo sapiens, UniProt P42684)
T3 construct: purchased Eurofins/DiscoveRx; host or cells: E. coli BL21-derived host (T7 phage display) for most kinases; HEK-293 for the rest
T3 sequence (P42684 whole entry): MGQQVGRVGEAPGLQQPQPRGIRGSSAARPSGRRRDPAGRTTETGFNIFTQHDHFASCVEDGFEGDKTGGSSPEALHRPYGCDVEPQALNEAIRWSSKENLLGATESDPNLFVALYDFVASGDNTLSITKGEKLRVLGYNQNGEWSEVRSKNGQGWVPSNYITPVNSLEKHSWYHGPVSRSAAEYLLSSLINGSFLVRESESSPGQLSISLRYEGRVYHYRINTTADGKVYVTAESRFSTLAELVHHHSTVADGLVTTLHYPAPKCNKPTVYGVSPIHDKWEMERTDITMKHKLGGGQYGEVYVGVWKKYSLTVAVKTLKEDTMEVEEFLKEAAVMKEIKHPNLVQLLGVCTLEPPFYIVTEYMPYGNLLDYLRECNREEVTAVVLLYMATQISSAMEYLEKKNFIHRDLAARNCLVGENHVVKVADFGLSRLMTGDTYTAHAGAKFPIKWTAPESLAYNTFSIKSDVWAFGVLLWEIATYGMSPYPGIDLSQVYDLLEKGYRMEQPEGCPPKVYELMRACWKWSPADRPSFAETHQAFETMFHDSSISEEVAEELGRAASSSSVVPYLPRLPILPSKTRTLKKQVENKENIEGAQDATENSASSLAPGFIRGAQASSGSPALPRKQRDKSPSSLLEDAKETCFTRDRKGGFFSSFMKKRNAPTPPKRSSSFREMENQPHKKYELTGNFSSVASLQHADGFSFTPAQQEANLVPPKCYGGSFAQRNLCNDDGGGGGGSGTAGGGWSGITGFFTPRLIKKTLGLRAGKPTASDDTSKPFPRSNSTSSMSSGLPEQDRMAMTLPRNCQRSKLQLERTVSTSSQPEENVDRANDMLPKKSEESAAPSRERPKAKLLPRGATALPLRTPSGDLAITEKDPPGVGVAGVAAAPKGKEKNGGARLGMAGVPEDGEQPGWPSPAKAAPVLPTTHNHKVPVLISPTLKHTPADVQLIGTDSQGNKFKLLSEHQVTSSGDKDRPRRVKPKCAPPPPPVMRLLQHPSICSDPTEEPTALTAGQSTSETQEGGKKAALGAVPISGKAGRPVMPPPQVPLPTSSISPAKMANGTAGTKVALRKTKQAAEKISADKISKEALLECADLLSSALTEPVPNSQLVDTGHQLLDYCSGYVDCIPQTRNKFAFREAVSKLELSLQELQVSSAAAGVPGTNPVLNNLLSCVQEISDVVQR
Method in brief: as §1

kinases [4] = target: T4, kinases (Homo sapiens, UniProt P07949, V804L)
T4 construct: purchased Eurofins/DiscoveRx; host or cells: E. coli BL21-derived host (T7 phage display) for most kinases; HEK-293 for the rest
T4 sequence (P07949 29-1114 V804L): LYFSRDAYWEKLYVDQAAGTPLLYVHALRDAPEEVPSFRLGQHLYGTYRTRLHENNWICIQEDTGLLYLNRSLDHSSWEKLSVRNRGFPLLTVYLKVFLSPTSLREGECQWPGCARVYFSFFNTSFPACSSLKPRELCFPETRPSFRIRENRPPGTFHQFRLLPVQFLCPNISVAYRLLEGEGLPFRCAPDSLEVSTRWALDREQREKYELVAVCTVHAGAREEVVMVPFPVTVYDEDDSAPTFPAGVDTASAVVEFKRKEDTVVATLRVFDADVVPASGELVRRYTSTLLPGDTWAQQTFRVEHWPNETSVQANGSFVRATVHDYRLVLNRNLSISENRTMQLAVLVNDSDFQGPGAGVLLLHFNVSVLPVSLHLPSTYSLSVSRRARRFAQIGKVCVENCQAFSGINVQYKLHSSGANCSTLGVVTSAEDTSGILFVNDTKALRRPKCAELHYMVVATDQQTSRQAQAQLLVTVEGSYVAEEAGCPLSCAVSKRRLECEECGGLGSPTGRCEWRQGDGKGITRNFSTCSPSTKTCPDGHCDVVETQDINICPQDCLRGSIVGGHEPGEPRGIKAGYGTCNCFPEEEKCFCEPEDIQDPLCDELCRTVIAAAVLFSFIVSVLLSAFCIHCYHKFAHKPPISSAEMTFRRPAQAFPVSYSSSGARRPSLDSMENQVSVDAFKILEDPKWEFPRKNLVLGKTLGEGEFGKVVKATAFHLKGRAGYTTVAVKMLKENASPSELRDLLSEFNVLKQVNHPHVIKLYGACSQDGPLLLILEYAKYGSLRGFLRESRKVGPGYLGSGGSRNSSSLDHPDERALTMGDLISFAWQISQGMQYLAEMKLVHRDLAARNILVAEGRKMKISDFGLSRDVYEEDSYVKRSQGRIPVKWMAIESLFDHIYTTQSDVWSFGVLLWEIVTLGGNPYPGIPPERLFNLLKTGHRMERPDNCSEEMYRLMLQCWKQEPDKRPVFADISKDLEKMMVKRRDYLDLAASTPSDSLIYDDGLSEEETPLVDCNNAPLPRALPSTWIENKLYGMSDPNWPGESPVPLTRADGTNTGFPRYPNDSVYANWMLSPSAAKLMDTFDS
Method in brief: as §1

kinases [5] = target: T5, kinases (Homo sapiens, UniProt P00533, L861Q)
T5 construct: purchased Eurofins/DiscoveRx; host or cells: E. coli BL21-derived host (T7 phage display) for most kinases; HEK-293 for the rest
Method in brief: as §1

kinases [6] = target: T6, kinases (Homo sapiens, UniProt P00533)
T6 construct: purchased Eurofins/DiscoveRx; host or cells: E. coli BL21-derived host (T7 phage display) for most kinases; HEK-293 for the rest
Method in brief: as §1

kinases [7] = target: T7, kinases (Homo sapiens, UniProt P10721)
T7 construct: purchased Eurofins/DiscoveRx; host or cells: E. coli BL21-derived host (T7 phage display) for most kinases; HEK-293 for the rest
T7 sequence (P10721 26-976): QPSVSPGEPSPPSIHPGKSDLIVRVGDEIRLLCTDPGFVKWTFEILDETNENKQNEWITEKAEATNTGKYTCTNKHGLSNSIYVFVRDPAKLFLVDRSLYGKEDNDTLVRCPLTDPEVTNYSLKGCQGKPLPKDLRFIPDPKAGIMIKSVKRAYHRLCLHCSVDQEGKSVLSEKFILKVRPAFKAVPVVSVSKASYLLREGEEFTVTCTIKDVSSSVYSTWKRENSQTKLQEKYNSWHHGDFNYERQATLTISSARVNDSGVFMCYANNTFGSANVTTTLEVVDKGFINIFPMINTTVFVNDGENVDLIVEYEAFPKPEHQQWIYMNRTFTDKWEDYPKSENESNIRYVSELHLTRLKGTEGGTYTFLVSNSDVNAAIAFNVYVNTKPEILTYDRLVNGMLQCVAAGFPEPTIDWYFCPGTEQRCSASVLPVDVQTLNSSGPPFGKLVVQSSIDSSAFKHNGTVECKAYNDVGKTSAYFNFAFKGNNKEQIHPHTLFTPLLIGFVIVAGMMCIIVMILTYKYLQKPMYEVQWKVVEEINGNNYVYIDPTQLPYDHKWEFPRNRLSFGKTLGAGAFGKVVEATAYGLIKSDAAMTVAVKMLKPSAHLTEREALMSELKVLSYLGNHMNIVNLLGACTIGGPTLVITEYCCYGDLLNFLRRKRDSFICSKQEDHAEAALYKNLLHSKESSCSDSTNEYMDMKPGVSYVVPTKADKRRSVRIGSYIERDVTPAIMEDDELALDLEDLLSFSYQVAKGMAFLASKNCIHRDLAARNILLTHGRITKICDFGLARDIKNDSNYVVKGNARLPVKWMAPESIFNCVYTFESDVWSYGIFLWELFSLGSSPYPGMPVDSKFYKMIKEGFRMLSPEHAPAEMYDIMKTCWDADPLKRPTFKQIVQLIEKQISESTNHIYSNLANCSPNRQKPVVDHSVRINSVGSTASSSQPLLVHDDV
Method in brief: as §1

kinases [8] = target: T8, kinases (Homo sapiens, UniProt P10721, A829P)
T8 construct: purchased Eurofins/DiscoveRx; host or cells: E. coli BL21-derived host (T7 phage display) for most kinases; HEK-293 for the rest
T8 sequence (P10721 26-976 A829P): as the sequence (P10721 26-976) above, with A804P counted along it
Method in brief: as §1

kinases [9] = target: T9, kinases (Homo sapiens, UniProt P36888, N841I)
T9 construct: purchased Eurofins/DiscoveRx; host or cells: E. coli BL21-derived host (T7 phage display) for most kinases; HEK-293 for the rest
T9 sequence (P36888 27-993 N841I): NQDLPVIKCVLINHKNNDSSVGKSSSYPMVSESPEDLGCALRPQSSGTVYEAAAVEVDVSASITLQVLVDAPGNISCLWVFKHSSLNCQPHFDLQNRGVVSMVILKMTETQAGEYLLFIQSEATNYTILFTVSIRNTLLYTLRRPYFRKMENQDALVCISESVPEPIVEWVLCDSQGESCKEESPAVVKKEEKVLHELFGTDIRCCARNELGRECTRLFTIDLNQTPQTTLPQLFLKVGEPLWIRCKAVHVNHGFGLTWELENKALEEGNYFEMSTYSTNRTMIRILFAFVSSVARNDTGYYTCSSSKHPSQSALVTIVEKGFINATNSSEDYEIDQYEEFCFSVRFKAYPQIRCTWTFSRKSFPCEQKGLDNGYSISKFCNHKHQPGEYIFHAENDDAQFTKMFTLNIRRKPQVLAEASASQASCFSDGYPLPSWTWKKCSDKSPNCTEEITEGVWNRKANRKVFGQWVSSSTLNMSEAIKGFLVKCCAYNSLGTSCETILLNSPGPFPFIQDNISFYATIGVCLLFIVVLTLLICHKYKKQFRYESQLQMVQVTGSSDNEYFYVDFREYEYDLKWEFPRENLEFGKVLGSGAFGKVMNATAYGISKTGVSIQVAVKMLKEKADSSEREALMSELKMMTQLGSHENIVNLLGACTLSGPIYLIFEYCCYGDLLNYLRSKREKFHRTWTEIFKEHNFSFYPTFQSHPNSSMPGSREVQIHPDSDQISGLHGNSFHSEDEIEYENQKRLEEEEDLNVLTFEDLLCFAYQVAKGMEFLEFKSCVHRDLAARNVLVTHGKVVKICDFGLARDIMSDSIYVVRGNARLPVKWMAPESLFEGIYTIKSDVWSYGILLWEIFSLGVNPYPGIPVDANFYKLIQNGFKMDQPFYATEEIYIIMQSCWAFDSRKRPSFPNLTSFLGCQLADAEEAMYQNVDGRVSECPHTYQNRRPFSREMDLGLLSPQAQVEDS
Method in brief: as §1

kinases [10] = target: T10, kinases (Homo sapiens, UniProt P10721, D816V)
T10 construct: purchased Eurofins/DiscoveRx; host or cells: E. coli BL21-derived host (T7 phage display) for most kinases; HEK-293 for the rest
T10 sequence (P10721 26-976 D816V): as the sequence (P10721 26-976) above, with D791V counted along it
Method in brief: as §1

kinases [11] = target: T11, kinases (Homo sapiens, UniProt P10721, V559D/V654A)
T11 construct: purchased Eurofins/DiscoveRx; host or cells: E. coli BL21-derived host (T7 phage display) for most kinases; HEK-293 for the rest
T11 sequence (P10721 26-976 V559D/V654A): as the sequence (P10721 26-976) above, with V534D, V629A counted along it
Method in brief: as §1

T1 sequence (P10721 26-976 V559D): as the sequence (P10721 26-976) above, with V534D counted along it

Structure (SMILES)	% Ctrl, KIT(V559D) (kinases [1]; KIT(V559D)) [% Ctrl]	% Ctrl, ABL1(F317I)-nonphosphorylated (kinases [2]; ABL1(F317I)-nonphosphorylated) [% Ctrl]	% Ctrl, ABL1(F317I)-phosphorylated (kinases [2]; ABL1(F317I)-phosphorylated) [% Ctrl]	% Ctrl, ABL2 (kinases [3]; ABL2) [% Ctrl]	% Ctrl, RET(V804L) (kinases [4]; RET(V804L)) [% Ctrl]	% Ctrl, EGFR(L861Q) (kinases [5]; EGFR(L861Q)) [% Ctrl]	% Ctrl, EGFR (kinases [6]; EGFR) [% Ctrl]	% Ctrl, KIT (kinases [7]; KIT) [% Ctrl]	% Ctrl, KIT-autoinhibited (kinases [7]; KIT-autoinhibited) [% Ctrl]	% Ctrl, KIT(A829P) (kinases [8]; KIT(A829P)) [% Ctrl]	% Ctrl, FLT3(N841I) (kinases [9]; FLT3(N841I)) [% Ctrl]	% Ctrl, KIT(D816V) (kinases [10]; KIT(D816V)) [% Ctrl]	% Ctrl, KIT(V559D, V654A) (kinases [11]; KIT(V559D, V654A)) [% Ctrl]	other results
Cc1cc2c([nH]1)/C=C1\C(=O)Nc3cc(Cl)c(cc31)SCCOCCN(C)C2=O [Ex. 169, [16a(17)Z]-19-chloro-5-methyl-6,7,9,10-tetrahydro-1H-12,14-(ethanediylidene)dipyrrolo[3,4-g:2′,3′-j][1,4,13]oxathiazacyclopentadecine-4,16(5H,15H)-dione]														% Ctrl, KIT(V559D) (kinases [1]; target KIT(V559D)): 1.2 % Ctrl; % Ctrl, ABL1(F317I)-nonphosphorylated (kinases [2]; target ABL1(F317I)-nonphosphorylated): 0.6 % Ctrl; % Ctrl, ABL1(F317I)-phosphorylated (kinases [2]; target ABL1(F317I)-phosphorylated): 5 % Ctrl; % Ctrl, ABL2 (kinases [3]; target ABL2): 0.3 % Ctrl; % Ctrl, RET(V804L) (kinases [4]; target RET(V804L)): 0.2 % Ctrl; % Ctrl, EGFR(L861Q) (kinases [5]; target EGFR(L861Q)): 77 % Ctrl; % Ctrl, EGFR (kinases [6]; target EGFR): 42 % Ctrl; % Ctrl, KIT (kinases [7]; target KIT): 7.5 % Ctrl; % Ctrl, KIT-autoinhibited (kinases [7]; target KIT-autoinhibited): 25 % Ctrl; % Ctrl, KIT(A829P) (kinases [8]; target KIT(A829P)): 22 % Ctrl; % Ctrl, FLT3(N841I) (kinases [9]; target FLT3(N841I)): 0 % Ctrl; % Ctrl, KIT(D816V) (kinases [10]; target KIT(D816V)): 1.6 % Ctrl; % Ctrl, KIT(V559D, V654A) (kinases [11]; target KIT(V559D, V654A)): 13 % Ctrl
Cc1cc2c([nH]1)/C=C1\C(=O)Nc3ccc(cc31)-c1c(C)n[nH]c1CNCCN(C)C2=O [Ex. 127, [3a(4)Z]-6,9,16-trimethyl-9,10,11,12,13,14-hexahydro-1,17-(ethanediylidene)pyrazolo[4,3-m]dipyrrolo[3,2-f:3′,4′-i][1,4]diazacyclopentadecine-3,8(2H,5H)-dione]	82	2.6	5.5	6.9	0.55	73	42	89	80	60	0.35	48	89	
Cc1cc2c([nH]1)/C=C1\C(=O)Nc3cc(Cl)c(cc31)OCCO[C@@H](C(=O)N(C)C)CN(C)C2=O [Ex. 137, [7R,16a(17)Z]-19-chloro-N,N,2,5-tetramethyl-4,16-dioxo-4,5,6,7,9,10,15,16-octahydro-1H-12,14-(ethanediylidene)dipyrrolo[3,2-i:3′,4′-l][1,4,7]dioxazacyclopentadecine-7-carboxamide]	75	95	83	99	37	100	100	90	72	75	49	67	73	
Cc1cc2c([nH]1)/C=C1\C(=O)Nc3ccc(cc31)-c1ccnn1CCOCCN(C)C2=O [Ex. 41, [19a(20)Z]-2,5-dimethyl-6,7,9,10-tetrahydro-1H-15,17-(ethanediylidene)pyrazolo[1,5-d]dipyrrolo[3,4-h:2′,3′-k][1,4,14]oxadiazacyclohexadecine-4,19(5H,18H)-dione]	64	54	75	77	17	91	62	58	78	45	0	38	93	
Cc1cc2c([nH]1)/C=C1\C(=O)Nc3cnc(cc31)-c1cnn(C)c1COCCNC2=O [Ex.123, [3a(4)Z]-6,14-dimethyl-10,11,13,14-tetrahydro-2H-17,1-(azenometheno)pyrazolo[4,3-m]dipyrrolo[3,2-f:3′,4′-i][1,4]oxazacyclopentadecine-3,8(5H,9H)-dione]	99	100	100	100	89	100	98	97	97	100	95	100	79	
Cc1cc2c([nH]1)/C=C1\C(=O)Nc3ccc(cc31)O[C@@H](C)COCCN(C)C2=O [Ex. 92, [10S,16a(17)Z]-2,5,10-trimethyl-6,7,9,10-tetrahydro-1H-12,14-(ethanediylidene)dipyrrolo[3,2-i:3′,4′-l][1,4,7]dioxazacyclopentadecine-4,16(5H,15H)-dione]	91	22	89	43	43	100	98	91	100	100	20	59	67	
